This passage reports IC50 results from US20050239751A1, “Heterocyclic anti-viral compounds comprising metabolizable moieties and their uses” (Rigel Pharmaceuticals, Inc., priority 2004, published 2005).

One experiment deals with HCV NS5A protein in 9-13 replicon cells. Kind of experiment: Replicon quantitative Western blot assay (HEPC_REPLICON-ICWESTERN). Format: cell-based. Particulars: Hepatitis C virus, read-out: HEPC_REPLICON-ICWESTERN Result Value. As to the method:
Alternatively, the inhibitory activity of the metabolically active agents of the prodrugs can be confirmed using a quantitative Western immunoblot assay utilizing antibodies specific for HCV non-structural proteins, such as NS3, NS4A NS5A and NS5B. In one embodiment of this assay, replicon cells are treated with varying concentrations of test prodrug to determine the concentration of the metabolically active agent of the test prodrug that yields a 50% reduction in the amount of a non-structural protein produced as compared to a control sample (IC50). A single non-structural protein may be quantified or multiple non-structural proteins may be quantified. Antibodies suitable for carrying out such immunoblot assays are available commercially (e.g., from BIODESIGN International, Saco, Me.).
Certain prodrugs of the invention, which may inhibit HCV translation or replication prior to metablism and/or are metabolized into active agents, were also tested for their ability to inhibit HCV replication using a quantitative Western blot analysis with antibodies specific for the HCV NS5A or other non-structural proteins. Actively dividing 9-13 replicon cells were seeded into 6-well plates at a density of 1×10^5 cells/well in a volume of 2 ml/well and incubated at 37° C. and 5% CO2 for 24 hours. Various concentrations of test prodrugs (in a volume of 10 ul) were added to the wells and the cells incubated for another 48 hours. Protein samples were prepared from the cultured cells, resolved on a SDS-PAGE gel and transferred to a nitrocellulose membrane. The membrane was blocked with 5% non-fat milk in PBS for 1 hour at room temperature. Primary antibody (anti NS5A antibody; BIODESIGN International, Saco, Me.) incubation was performed for 1 hour at room temperature, after which the membrane was washed 3 times (for 15 min per time) with PBST (PBS plus 0.1% Tween 20). Horseradish peroxidase conjugated secondary antibody incubation was performed for 1 hour at room temperature and the membrane was washed 3 times (for 15 min per time) with PBST. The membrane was then soaked in substrate solution (Pierce) and exposed to a film or quantified using an imager. In this assay, the amount of test prodrug that is believed to be transformed into an active agent under the given conditions that yielded a 50% reduction in the amount of NS5A protein translated as compared to a control sample (IC50) was determined.
Background: In antiviral work, replicon cells carry a viral genome segment that copies itself.
As to `CCOP(=O)(OCC)Oc1ccc(CCCN(C(=O)C(Cl)Cl)c2ccnc(-c3cc(-c4c(Cl)cccc4Cl)no3)c2)cc1` [Cpd. 1038, 4-(3-(2,2-Dichloro-N-(2-(3-(2,6-dichlorophenyl)isoxazol-5-yl)pyridin-4-yl)acetamido)propyl)phenyl Diethyl Phosphate], the IC50 lay within 1 to 20 µM.

Still in this experiment, the particulars now being: Hepatitis C virus; Table 14; read-out: HEPC_REPLICON-ICWESTERN Result Value.
`CC(C)(C)OC(=O)c1ccc(CN(C(=O)C(Cl)Cl)c2ccnc(-c3cc(-c4c(Cl)cccc4Cl)no3)c2)cc1` [Cpd. 1021, tert-Butyl 4-((2,2-Dichloro-N-(2-(3-(2,6-dichlorophenyl)isoxazol-5-yl)pyridin-4-yl)acetamido)methyl)benzoate]: the IC50 fell in the range of 1 to 20 µM.

Regarding `O=C(C(Cl)Cl)N(Cc1ccc(OCCN2CCOCC2)cc1)c1ccnc(-c2cc(-c3c(Cl)cccc3Cl)no2)c1` [Cpd. 1022, 2,2-Dichloro-N-(2-(3-(2,6-dichlorophenyl)isoxazol-5-yl)pyridin-4-yl)-N-(4-(2-morpholinoethoxy)benzyl)acetamide], the IC50 is less than 1 µM. The same measure, in the same setting: next, `CCN1CCN(c2ccc(CN(C(=O)C(Cl)Cl)c3ccnc(-c4cc(-c5c(Cl)cccc5Cl)no4)c3)cc2)CC1` [Cpd. 1023, 2,2-Dichloro-N-(2-(3-(2,6-dichlorophenyl)isoxazol-5-yl)pyridin-4-yl)-N-(4-(4-ethylpiperazin-1-yl)benzyl)acetamide]: less than 1 µM; `O=C(CCN(C(=O)C(Cl)Cl)c1ccnc(-c2cc(-c3c(Cl)cccc3Cl)no2)c1)C1CCCN1` (stereo not shown) [Cpd. 1024, 2,2-Dichloro-N-(2-(3-(2,6-dichlorophenyl)isoxazol-5-yl)pyridin-4-yl)-N-(3-oxo-3-(pyrrolidin-2-yl)propyl)acetamide]: less than 1 µM; `O=C(C(Cl)Cl)N(CCN1CCOCC1)c1ccnc(-c2cc(-c3c(Cl)cccc3Cl)no2)c1` [Cpd. 1026, 2,2-Dichloro-N-(2-(3-(2,6-dichlorophenyl)isoxazol-5-yl)pyridin4-yl)-N-(2-morpholinoethyl)acetamide]: more than 20 µM. For `CCCNC(=O)Oc1c(C)cc(CN(C(=O)C(Cl)Cl)c2ccnc(-c3cc(-c4c(Cl)cccc4Cl)no3)c2)cc1C` [Cpd. 1027, 4-((2,2-Dichloro-N-(2-(3-(2,6-dichlorophenyl)isoxazol-5-yl)pyridin4-yl)acetamido)methyl)-2,6-dimethylphenyl Propylcarbamate], the IC50 lay in the range of 1 to 20 µM. Same read-out and setting: next, `O=C(C(Cl)Cl)N(COCCc1ccccn1)c1ccnc(-c2cc(-c3c(Cl)cccc3Cl)no2)c1` [Cpd. 1028, 2,2-Dichloro-N-(2-(3-(2,6-dichlorophenyl)isoxazol-5-yl)pyridin-4-yl)-N-((2-(pyridin-2-yl)ethoxy)methyl)acetamide]: more than 20 µM; `CC(C)(C)OC(=O)N1CCN(c2ccc(CCCN(C(=O)C(Cl)Cl)c3ccnc(-c4cc(-c5c(Cl)cccc5Cl)no4)c3)cc2)CC1` [Cpd. 1039, tert-Butyl 4-(4-(3-(2,2-Dichloro-N-(2-(3-(2,6-dichlorophenyl)isoxazol-5-yl)pyridin-4yl)acetamido)propyl)phenyl)piperazine-1-carboxylate]: more than 20 µM; `CC(C)(C)OC(=O)c1ccc(CCCN(C(=O)C(Cl)Cl)c2ccnc(-c3cc(-c4c(Cl)cccc4Cl)no3)c2)cc1` [Cpd. 1040, tert-Butyl 4-(3-(2,2-Dichloro-N-(2-(3-(2,6-dichlorophenyl)isoxazol-5-yl)pyridin-4-yl)acetamido)propyl)benzoate]: 1 to 20 µM. On the same count and under the same terms, next, `CC(C)(C)OP(=O)(Cc1ccc(CCCN(C(=O)C(Cl)Cl)c2ccnc(-c3cc(-c4c(Cl)cccc4Cl)no3)c2)cc1)OC(C)(C)C` [Cpd. 1041, Di-tert-Butyl 4-(3-(2,2-Dichloro-N-(2-(3-(2,6-dichlorophenyl)isoxazol-5-yl)pyridin-4-yl)acetamido)propyl)benzylphosphonate]: 1 to 20 µM; `O=C(C(Cl)Cl)N(CCCc1ccc(CP(=O)(O)O)cc1)c1ccnc(-c2cc(-c3c(Cl)cccc3Cl)no2)c1` [Cpd. 1042, 4-(3-(2,2-Dichloro-N-(2-(3-(2,6-dichlorophenyl)isoxazol-5-yl)pyridin-4-yl)acetamido)propyl)benzylphosphonic Acid]: more than 20 µM.

Turning to `O=C(C(Cl)Cl)N(CCCc1ccc(N2CCNCC2)cc1)c1ccnc(-c2cc(-c3c(Cl)cccc3Cl)no2)c1` [Cpd. 1043, 2,2-Dichloro-N-(2-(3-(2,6-dichlorophenyl)isoxazol-5-yl)pyridin-4-yl)-N-(3-(4-(piperazin-1-yl)phenyl)propyl)acetamide], the IC50 lay within 1 to 20 µM. Still for that read-out and setting: next, `O=C(c1cccc(-c2cc(-c3c(Cl)cccc3Cl)no2)c1)N(Cc1oc(=O)oc1COC1CC(O)C(O)C(CO)O1)C(=O)C(Cl)Cl` (stereo not shown) [Cpd. 1044]: less than 1 µM.

In the next experiment the test system is HCV replicon in 5-2 Luc replicon-comprising cells. As to the kind of experiment: HCV replicon assay (luciferase; HEPC_REPLICON-LUC). Format: cell-based, Hepatitis C virus. The note with it: Hepatitis C virus; Table 14; read-out: HEPC_REPLICON-LUC Result Value. From the text: In one embodiment, the inhibitory activity of the metabolically active agent of the prodrug can be confirmed in a replicon assay that assesses the ability of a test compound to block or inhibit HCV replication in replicon cells. One example of a suitable replicon assay is the liver cell-line Huh 7-based replicon assay described in Lohmann et al., 1999, Science 285:110-113. A specific example of this replicon assay which utilizes luciferase translation is provided in the Examples Section. In one embodiment of this assay, the amount of test prodrug that yields a 50% reduction in translation as compared to a control cell (IC50) may be determined.
The inhibitory activity of certain prodrugs of the invention, which may inhibit HCV translation or replication prior to metablism and/or are metabolized into active agents, was confirmed using an HCV replicon assay. The HCV replicon can include such features as the HCV 5′ untranslated region including the HCV IRES, the HCV 3′ untranslated region, selected HCV genes encoding HCV polypeptides, selectable markers, and a reporter gene such as luciferase, GFP, etc. In the assay, actively dividing 5-2 Luc replicon-comprising cells (obtained from Ralf Bartenschlager; see Lohmann et al., 1999, Science 285:110-113) were seeded at a density of between about 5,000 and 7,500 cells/well onto 96 well plates (about 90 µl of cells per well) and incubated at 37° C. and 5% CO2 for 24 hours. Then, the test prodrug (in a volume of about 10 PI) was added to the wells at various concentrations and the cells were incubated for an additional 24-48 hours before luciferase assay. The media was aspirated from each well and Bright-Glo (Promega, Madison, WI) luciferase assay reagents were added to each well according to the manufacturer's instructions. Briefly, the BrightGlo reagent was diluted 1:1 with PBS and 100 µl of diluted reagent was added to each well. After 5 min of incubation at room temperature, luciferin emission was quantified with a luminometer. In this assay, the amount of test prodrug that yielded a 50% reduction in luciferase emission (IC50) was determined. This IC50 value may represent the antiviral activity of the prodrug itself, the activity of prodrug transformed into its active metabolized form, or a combination of the two.
In TABLES 3 through 12, a value of “+” indicates an IC50 of 10 μM or less in the specified assay; a value of “−” indicates an IC50 of greater than 10 μM in the specified assay.
For `CC(C)(C)OP(=O)(Cc1ccc(CCCN(C(=O)C(Cl)Cl)c2ccnc(-c3cc(-c4c(Cl)cccc4Cl)no3)c2)cc1)OC(C)(C)C` [Cpd. 1041, Di-tert-Butyl 4-(3-(2,2-Dichloro-N-(2-(3-(2,6-dichlorophenyl)isoxazol-5-yl)pyridin-4-yl)acetamido)propyl)benzylphosphonate], the IC50 was in the range of 1 to 20 µM. On the same count and under the same terms, next, `O=C(C(Cl)Cl)N(CCCc1ccc(N2CCNCC2)cc1)c1ccnc(-c2cc(-c3c(Cl)cccc3Cl)no2)c1` [Cpd. 1043, 2,2-Dichloro-N-(2-(3-(2,6-dichlorophenyl)isoxazol-5-yl)pyridin-4-yl)-N-(3-(4-(piperazin-1-yl)phenyl)propyl)acetamide]: 1 to 20 µM; `O=C(c1cccc(-c2cc(-c3c(Cl)cccc3Cl)no2)c1)N(Cc1oc(=O)oc1COC1CC(O)C(O)C(CO)O1)C(=O)C(Cl)Cl` (stereo not shown) [Cpd. 1044]: less than 1 µM.

Still in this experiment, the particulars now being: Hepatitis C virus; Tables 3-12; 50% reduction in luciferase emission, 5-2 Luc replicon cells; read-out: Replicon (IC50).
Turning to `Cc1oc(=O)oc1CN(C(=O)C(Cl)Cl)c1cccc(-c2cc(-c3c(Cl)cccc3Cl)no2)c1` [compound 901, 2,2-dichloro-N-[3′-[3′-(2′,6′-dichlorophenyl)-5′-isoxazoyl]phenyl]N-[(5-methyl-1,3-dioxolene-2-one4-yl)methylene] acetamide], the IC50 is not above 10 µM. On the same count and under the same terms, next, `CC(C)(C)c1oc(=O)oc1CN(C(=O)C(Cl)Cl)c1cccc(-c2cc(-c3c(Cl)cccc3Cl)no2)c1` [compound 1007, 2,2-dichloro-N-[3′-[3′-(2′,6′-dichlorophenyl)-5′-isoxazoyl]phenyl]-N-[(5-t-butyl-1,3-dioxolene-2-one4yl)methylene]acetamide]: not above 10 µM.
